Laboratory results taken from US6753337B2, “Alkynyl containing hydroxamic acid compounds as matrix metalloproteinase/tace inhibitors” (Wyeth Holdings Corporation, priority 1999, dated 2004).
Structures can show the parent of a compound that is named as a salt.

Experiments:
Assay type in all cases: biochemical
[1] = biological target: TNF-α converting enzyme (TACE) (Homo sapiens, UniProt P78536); assay: Test procedure for measuring TACE inhibition (fluorescent peptidyl substrate)
How it was run: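 TACE (1 μg/mL final) preincubated 10 min at room temperature with 1 μM compound in 10 mM Tris pH 7.4, 10% glycerol, DMSO <1%. Treated rates tested against control by Dunnett's test (p<0.05).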

MMP-1 = biological target: T1, MMP-1 (Homo sapiens, UniProt P03956); assay: MMP-1 inhibition (thiopeptide or fluorescent peptide substrate); conditions: read-out: MMP1 IC50
T1 sequence (P03956 100-469): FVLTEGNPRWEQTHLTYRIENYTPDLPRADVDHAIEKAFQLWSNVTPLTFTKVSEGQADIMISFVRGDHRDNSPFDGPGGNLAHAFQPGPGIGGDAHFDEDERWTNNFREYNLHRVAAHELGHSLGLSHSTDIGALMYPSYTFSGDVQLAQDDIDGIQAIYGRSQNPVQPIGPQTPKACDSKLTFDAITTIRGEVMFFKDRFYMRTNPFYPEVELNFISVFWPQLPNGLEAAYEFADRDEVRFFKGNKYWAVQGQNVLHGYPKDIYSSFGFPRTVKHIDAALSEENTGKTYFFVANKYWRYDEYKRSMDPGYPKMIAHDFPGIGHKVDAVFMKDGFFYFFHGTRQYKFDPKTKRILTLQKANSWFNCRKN

MMP-9 = MMP-9 (Homo sapiens, UniProt P14780); assay: MMP-9 inhibition (thiopeptide or fluorescent peptide substrate); conditions: read-out: MMP9 IC50
MMP-13 = MMP-13 (Homo sapiens, UniProt P45452); assay: MMP-13 inhibition (thiopeptide or fluorescent peptide substrate); conditions: read-out: MMP13 IC50
How it was run: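 Human recombinant MMP-1, MMP-9 or MMP-13 was run either with a thiopeptide substrate plus DTNB (1 mM working dilution) in 50 mM HEPES pH 7.5, 5 mM CaCl2 (colorimetric), or with a quenched fluorescent peptide in HCBC buffer pH 7.0. Reactions started with substrate; the rate slope was compared with control by Dunnett's test.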

Sequence of TNF-α converting enzyme (TACE) (P78536 215-824): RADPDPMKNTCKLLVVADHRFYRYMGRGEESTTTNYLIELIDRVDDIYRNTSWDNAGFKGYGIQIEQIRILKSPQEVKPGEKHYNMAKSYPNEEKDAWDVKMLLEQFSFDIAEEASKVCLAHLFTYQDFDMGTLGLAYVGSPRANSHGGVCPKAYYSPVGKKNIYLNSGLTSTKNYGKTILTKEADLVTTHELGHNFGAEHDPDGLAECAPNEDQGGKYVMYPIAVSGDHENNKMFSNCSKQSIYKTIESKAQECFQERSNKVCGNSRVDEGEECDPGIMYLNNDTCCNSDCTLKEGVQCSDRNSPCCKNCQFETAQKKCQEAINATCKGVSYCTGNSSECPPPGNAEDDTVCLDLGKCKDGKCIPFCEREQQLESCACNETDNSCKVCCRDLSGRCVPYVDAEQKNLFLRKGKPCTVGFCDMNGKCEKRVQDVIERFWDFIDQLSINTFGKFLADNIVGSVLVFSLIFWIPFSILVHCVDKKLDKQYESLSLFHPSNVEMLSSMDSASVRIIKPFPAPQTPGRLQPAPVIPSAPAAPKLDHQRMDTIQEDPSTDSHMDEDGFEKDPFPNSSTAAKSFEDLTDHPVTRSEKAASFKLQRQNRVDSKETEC
Sequence of MMP-9 (P14780 94-707): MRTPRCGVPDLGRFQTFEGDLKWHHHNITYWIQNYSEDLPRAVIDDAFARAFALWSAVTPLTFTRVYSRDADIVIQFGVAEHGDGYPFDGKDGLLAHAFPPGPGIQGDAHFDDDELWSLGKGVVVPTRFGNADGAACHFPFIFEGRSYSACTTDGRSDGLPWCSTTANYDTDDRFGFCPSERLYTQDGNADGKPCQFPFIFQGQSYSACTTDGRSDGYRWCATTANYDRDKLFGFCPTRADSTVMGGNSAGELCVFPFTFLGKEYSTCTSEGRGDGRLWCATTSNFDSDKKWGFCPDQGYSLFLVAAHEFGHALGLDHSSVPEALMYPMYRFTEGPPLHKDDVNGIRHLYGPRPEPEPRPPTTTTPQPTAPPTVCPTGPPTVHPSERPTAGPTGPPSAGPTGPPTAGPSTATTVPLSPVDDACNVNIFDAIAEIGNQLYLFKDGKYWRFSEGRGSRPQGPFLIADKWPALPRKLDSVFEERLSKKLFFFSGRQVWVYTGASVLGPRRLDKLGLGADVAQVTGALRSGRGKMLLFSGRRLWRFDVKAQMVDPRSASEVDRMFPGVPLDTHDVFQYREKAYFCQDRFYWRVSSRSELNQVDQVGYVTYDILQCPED

Compound	IC50 [1] [nM]	IC50 (MMP-1) [nM]	IC50 (MMP-9) [nM]	IC50 (MMP-13) [nM]
CC#CCOc1ccc(S(=O)(=O)C2(C(=O)NO)CCN(C(=O)OC(C)(C)C)CC2)cc1 [Example 75, Tert-butyl 4-{[4-(2-butynyloxy)phenyl]sulfonyl}-4-[(hydroxyamino)carbonyl-]-1-piperidinecarboxalate]	134	2590	1950	284
CC#CCOc1ccc(S(=O)(=O)C2(C(=O)NO)CCNCC2)cc1 [Example 76, 4-{[4-(2-butynyloxy)phenyl]sulfonyl}-N-hydroxy-4-piperidinecarboxamide hydrochloride]	201	4500	7890	4020
CC#CCOc1ccc(S(=O)(=O)C2(C(=O)NO)CCN(Cc3ccc(C(=O)O)cc3)CC2)cc1 [Example 78, 4-({4-{[4-(2-butynyloxy)phenyl]sulfonyl}-4-[(hydroxyamino)-carbonyl]-1-piperidinyl}methyl)benzoic acid hydrochloride]	64.5	1050	364	73.7
CC#CCOc1ccc([S+]([O-])C2(C(=O)NO)CCN(C(=O)OC(C)(C)C)CC2)cc1 (centres unmarked) [Example 80, tert-butyl 4-{[4-(but-2-ynyloxy)phenyl]sulfinyl}-4-[(hydroxyamino)carbonyl]piperidine-1-carboxalate]	90	186000	122	40
CC#CCOc1ccc([S+]([O-])C2(C(=O)NO)CCNCC2)cc1 (centres unmarked) [Example 81, 4-(4-(But-2-ynyloxy-benzenesulfinyl)-piperidine-4-carboxylic acid hydroxamide hydrochloride]	277	1880	1040	593
CC#CCOc1ccc([S+]([O-])C2(C(=O)NO)CCN(Cc3ccc(Br)cc3)CC2)cc1 (centres unmarked) [Example 82, 1-(4-Bromo-benzyl)-4-(4-But-2-ynyloxy-benzenesulfinyl)-piperidine-4-carboxylic acid hydroxamide hydrochloride]	135	257000	125	62

The remaining lines, values ahead:

IC50 [1] [nM]	IC50 (MMP-1) [nM]	IC50 (MMP-9) [nM]	IC50 (MMP-13) [nM]	Compound
114	2190	149	349	CC#CCOc1ccc(S(=O)(=O)C2(C(=O)NO)CCN(Cc3ccc(C(=O)OC)cc3)CC2)cc1 [Example 77, hydrochloride]
70	2420	129	50.6	CC#CCOc1ccc(S(=O)(=O)C2(C(=O)NO)CCN(Cc3ccc(C(N)=O)cc3)CC2)cc1 [Example 79, 1-[4-(Aminocarbonyl)benzyl]-4-{[4-(2-butynyloxy)phenyl]sulfonyl}-N-hydroxy-4-piperidinecarboxamide hydrochloride]
